The values that follow come from US9561231B2 (AbbVie Inc., priority 2012, dated 2017).

Assay [1] deals with T1, first (BD1: amino acids K57-E168) bromodomain of BRD4 (Homo sapiens, UniProt O60885).
T1 construct: His-tagged first (BD1: amino acids K57-E168)
Nature of the assay: TR-FRET bromodomain binding assay, BRD4 BD1. The note with it: Ki calculated from IC50, probe Kd and probe concentration, read-out: TR-FRET Binding Ki: BRD4 (BDI_K57-E168). The method in brief: (§1)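 Compounds were serially diluted in DMSO, diluted into pH 6.0 phosphate buffer with NaCl, EDTA, Triton X-100 and DTT, then combined with His-tagged bromodomain and an Alexa647-labeled BET-inhibitor probe. TR-FRET was read, percent inhibition fitted to give IC50, and Ki derived using probe Kd.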

Assay [2] deals with T2, second (BD2: amino acids E352-E168) bromodomain of BRD4 (Homo sapiens, UniProt O60885).
T2 construct: protocol
Nature of the assay: TR-FRET bromodomain binding assay, BRD4 BD2. The settings on record: Ki calculated from IC50, probe Kd and probe concentration, read-out: TR-FRET Binding Ki: BRD4 (BDII_E352-M457). The procedure, abridged:
as §1

Where [3] appears, read: TR-FRET assay protocol (A-G, compound concentration range).
Setting [4] is: TR-FRET assay protocol (D, E or G) per compound.

Each structure is given as a SMILES string. Like-named read-outs stand apart in the source and are kept apart here.

For `CC(C)Oc1ccc(-c2cc(=O)n(C)nc2-c2ccccc2Oc2ccccc2)cc1F` [Example 111, 5-[3-fluoro-4-(propan-2-yloxy)phenyl]-2-methyl-6-(2-phenoxyphenyl)pyridazin-3(2H)-one], the Ki in assay [1] (setting [3]) was 2470 nM; in assay [2] (setting [3]), 1970 nM.
Turning to `CN(C)c1cncc(-c2cc(=O)n(C)nc2-c2ccccc2Oc2ccccc2)c1` [Example 216, 5-[5-(dimethylamino)pyridin-3-yl]-2-methyl-6-(2-phenoxyphenyl)pyridazin-3(2H)-one], the Ki is 719 nM in assay [1] (setting [3]) and 462 nM in assay [2] (setting [3]).
For `COC(C)c1cccc(-c2cc(=O)n(C)nc2-c2ccccc2Oc2ccccc2)c1` (stereo not shown) [Example 134, 5-[3-(1-methoxyethyl)phenyl]-2-methyl-6-(2-phenoxyphenyl)pyridazin-3(2H)-one] the same measures were 4320 nM and 4060 nM.
The like results for `Cn1nc(-c2ccccc2Oc2ccccc2)c(-c2ccc(C(=O)N3CCOCC3)cc2)cc1=O` [Example 147, 2-methyl-5-[4-(morpholin-4-ylcarbonyl)phenyl]-6-(2-phenoxyphenyl)pyridazin-3(2H)-one] were, in that order, 260 nM and 168 nM.
For `CC(C)Oc1ncccc1-c1cc(=O)n(C)nc1-c1ccccc1Oc1ccccc1` [Example 130, 2-methyl-6-(2-phenoxyphenyl)-5-[2-(propan-2-yloxy)pyridin-3-yl]pyridazin-3(2H)-one], the inhibition constant Ki in assay [1] (setting [3]) is more than 13000 nM; in assay [2] (setting [3]) it was 17100 nM.
Turning to `CCOc1cc(=O)n(C)cc1-c1cc(NS(=O)(=O)c2ccc(-c3ccccc3)cc2)ccc1Oc1ccc(F)cc1F` [Example 309, N-[4-(2,4-difluorophenoxy)-3-(4-ethoxy-1-methyl-6-oxo-1,6-dihydropyridin-3-yl)phenyl]biphenyl-4-sulfonamide], the inhibitory constant (Ki) was 359 nM in assay [1] (setting [3]) and 151 nM in assay [2] (setting [3]).
The like results for `COc1cc(=O)n(C)nc1-c1ccccc1OCC1CCNCC1` [Example 44, 5-methoxy-2-methyl-6-[2-(piperidin-4-ylmethoxy)phenyl]pyridazin-3(2H)-one] were, in that order, 2710 nM and 5110 nM.
As for `CNC(=O)c1cncc(-c2cc(=O)n(C)nc2-c2ccccc2Oc2ccccc2)c1` [Example 122, N-methyl-5-[1-methyl-6-oxo-3-(2-phenoxyphenyl)-1,6-dihydropyridazin-4-yl]pyridine-3-carboxamide], the Ki is 8560 nM in assay [1] (setting [3]) and 4520 nM in assay [2] (setting [3]).
Consider `CCOc1cc(=O)n(C)cc1-c1cc(NS(=O)(=O)c2ccc(S(C)(=O)=O)cc2)ccc1Oc1ccc(F)cc1F` [Example 307, N-[4-(2,4-difluorophenoxy)-3-(4-ethoxy-1-methyl-6-oxo-1,6-dihydropyridin-3-yl)phenyl]-4-(methylsulfonyl)benzenesulfonamide], for which the figures for the inhibitory constant (Ki) in assay [1] (setting [3]) and in assay [2] (setting [3]) were 94.9 nM and 41.6 nM, respectively.
The like results for `Cn1nc(-c2ccccc2Oc2ccccc2)c(-c2ccc(OCC(F)(F)F)nc2)cc1=O` [Example 140, 2-methyl-6-(2-phenoxyphenyl)-5-[6-(2,2,2-trifluoroethoxy)pyridin-3-yl]pyridazin-3(2H)-one] were, in that order, more than 13000 nM and 8210 nM.
For `CN1CCN(c2cc(=O)n(C)nc2-c2ccccc2Oc2ccccc2)CC1=O` [Example 51, 2-methyl-5-(4-methyl-3-oxopiperazin-1-yl)-6-(2-phenoxyphenyl)pyridazin-3(2H)-one] the same measures were 11600 nM and 6600 nM.
For `CCOC(=O)Cc1ccc(-c2cc(=O)n(C)nc2-c2ccccc2Oc2ccccc2)cc1` [Example 97, ethyl{4-[1-methyl-6-oxo-3-(2-phenoxyphenyl)-1,6-dihydropyridazin-4-yl]phenyl}acetate] the same measures were 561 nM and 176 nM.
Take `Cn1nc(-c2ccccc2Oc2ccccc2)c(-c2ccc(C(=O)NC3CCCC3)cc2)cc1=O` [Example 169, N-cyclopentyl-4-[1-methyl-6-oxo-3-(2-phenoxyphenyl)-1,6-dihydropyridazin-4-yl]benzamide]: the Ki in assay [1] (setting [3]) is 599 nM; in assay [2] (setting [3]), 562 nM.
With `Cn1nc(-c2ccccc2Oc2ccccc2)c(-c2cccc(NS(C)(=O)=O)c2)cc1=O` [Example 120, N-{3-[1-methyl-6-oxo-3-(2-phenoxyphenyl)-1,6-dihydropyridazin-4-yl]phenyl}methanesulfonamide], the inhibition constant (Ki) in assay [1] (setting [3]) is 611 nM; in assay [2] (setting [3]) it was 1190 nM.
Turning to `COC(=O)c1ccc(-c2cc(=O)n(C)nc2-c2ccccc2Oc2ccccc2)cc1` [Example 102, methyl 4-[1-methyl-6-oxo-3-(2-phenoxyphenyl)-1,6-dihydropyridazin-4-yl]benzoate], the Ki is 2600 nM in assay [1] (setting [3]) and 960 nM in assay [2] (setting [3]).
`C=CCC(O)c1ccc(-c2cc(=O)n(C)nc2-c2ccccc2Oc2ccccc2)cc1` (stereo not shown) [Example 77, 5-[4-(1-hydroxybut-3-en-1-yl)phenyl]-2-methyl-6-(2-phenoxyphenyl)pyridazin-3(2H)-one]: the Ki is 511 nM in assay [1] (setting [3]) and 380 nM in assay [2] (setting [3]).
Consider `CCOc1cc(=O)n(C)cc1-c1cc(NC(=O)c2ccccc2CCc2ccccc2)ccc1Oc1ccc(F)cc1F` [Example 302, N-[4-(2,4-difluorophenoxy)-3-(4-ethoxy-1-methyl-6-oxo-1,6-dihydropyridin-3-yl)phenyl]-2-(2-phenylethyl)benzamide], for which the Ki in assay [1] (setting [3]) is 209 nM; in assay [2] (setting [3]), 47.2 nM.
On to `CCOc1cc(=O)n(C)cc1-c1cc(NS(=O)(=O)c2ccc(C(C)(C)C)cc2)ccc1Oc1ccc(F)cc1F` [Example 416, 4-tert-butyl-N-[4-(2,4-difluorophenoxy)-3-(4-ethoxy-1-methyl-6-oxo-1,6-dihydropyridin-3-yl)phenyl]benzenesulfonamide], for which the figures for the inhibition constant (Ki) in assay [1] (setting [4]) and in assay [2] (setting [4]) were 493 nM and 281 nM, respectively.
As for `CCN(CC)C(=O)c1ccc(-c2cc(=O)n(C)nc2-c2ccccc2Oc2ccccc2)cc1` [Example 158, N,N-diethyl-4-[1-methyl-6-oxo-3-(2-phenoxyphenyl)-1,6-dihydropyridazin-4-yl]benzamide], the Ki was 604 nM in assay [1] (setting [3]) and 529 nM in assay [2] (setting [3]).
For `Cn1cc(-c2cc(NS(C)(=O)=O)ccc2Oc2ccc(F)cc2F)cc(Cl)c1=O` [Example 282, N-[3-(5-chloro-1-methyl-6-oxo-1,6-dihydropyridin-3-yl)-4-(2,4-difluorophenoxy)phenyl]methanesulfonamide] the same measures were 20.4 nM and 99.7 nM.
Turning to `Cn1nc(-c2ccccc2Oc2ccccc2)c(C2CCNCC2)cc1=O` [Example 87, 2-methyl-6-(2-phenoxyphenyl)-5-(piperidin-4-yl)pyridazin-3(2H)-one], the figures for the Ki in assay [1] (setting [3]) and in assay [2] (setting [3]) were 2010 nM and 3090 nM, respectively.
Take `COc1cc(=O)n(C)nc1-c1cccc(NS(C)(=O)=O)c1` [Example 19, N-[3-(4-methoxy-1-methyl-6-oxo-1,6-dihydropyridazin-3-yl)phenyl]methanesulfonamide]: the inhibitory constant (Ki) was 8850 nM in assay [1] (setting [3]) and 8580 nM in assay [2] (setting [3]).
As to `CCOc1cc(=O)n(C)cc1-c1cc(NC(=O)c2ccc(N(CC)CC)cc2)ccc1Oc1ccc(F)cc1F` [Example 303, 4-(diethylamino)-N-[4-(2,4-difluorophenoxy)-3-(4-ethoxy-1-methyl-6-oxo-1,6-dihydropyridin-3-yl)phenyl]benzamide], the Ki in assay [1] (setting [3]) was 233 nM; in assay [2] (setting [3]), 201 nM.
With `Cc1ccc(-c2cc(=O)n(C)nc2-c2ccccc2Oc2ccccc2)cc1N` [Example 64, 5-(3-amino-4-methylphenyl)-2-methyl-6-(2-phenoxyphenyl)pyridazin-3(2H)-one], the Ki was 448 nM in assay [1] (setting [3]) and 507 nM in assay [2] (setting [3]).
Regarding `CCS(=O)(=O)c1ccc(Oc2ccc(F)cc2F)c(-c2cn(C)c(=O)cc2Cl)c1` [Example 382, 4-chloro-5-[2-(2,4-difluorophenoxy)-5-(ethylsulfonyl)phenyl]-1-methylpyridin-2(1H)-one], the inhibition constant Ki was 317 nM in assay [1] (setting [4]) and 276 nM in assay [2] (setting [4]).
Consider `CCO/C=C/c1cc(=O)n(C)cc1-c1cc(S(C)(=O)=O)ccc1NCC1CC1` [Example 327, 5-{2-[(cyclopropylmethyl)amino]-5-(methylsulfonyl)phenyl}-4-[(E)-2-ethoxyethenyl]-1-methylpyridin-2(1H)-one], for which the Ki in assay [1] (setting [3]) was 680 nM; in assay [2] (setting [3]) it was 1110 nM.
For `COC(=O)Cc1ccc(-c2cc(=O)n(C)nc2-c2ccccc2Oc2ccccc2)cc1` [Example 189, methyl{4-[1-methyl-6-oxo-3-(2-phenoxyphenyl)-1,6-dihydropyridazin-4-yl]phenyl}acetate] the same measures were 3140 nM and 1480 nM.
As to `CCOc1cc(=O)n(C)cc1-c1cc(NC(=O)C2CCN(c3ccccc3)C2=O)ccc1Oc1ccc(F)cc1F` (stereo not shown) [Example 295, N-[4-(2,4-difluorophenoxy)-3-(4-ethoxy-1-methyl-6-oxo-1,6-dihydropyridin-3-yl)phenyl]-2-oxo-1-phenylpyrrolidine-3-carboxamide], the inhibitory constant (Ki) was 275 nM in assay [1] (setting [3]) and 93 nM in assay [2] (setting [3]).
`CN(C)CCCNC(=O)c1cccc(-c2cc(=O)n(C)nc2-c2ccccc2Oc2ccccc2)c1` [Example 163, N-[3-(dimethylamino)propyl]-3-[1-methyl-6-oxo-3-(2-phenoxyphenyl)-1,6-dihydropyridazin-4-yl]benzamide]: the Ki is 1990 nM in assay [1] (setting [3]) and 366 nM in assay [2] (setting [3]).

What is called Ki is the equilibrium dissociation constant of an inhibitor or competing ligand from its target.
